The source of these data is US20250154127A1, “BICYCLIC HETEROARYL COMPOUNDS AND USES THEREOF” (ETERN BIOPHARMA (SHANGHAI) CO., LTD., priority 2022, published 2025).

Test [1] deals with TEAD1(210-426) binding to YAP(50-100) (Homo sapiens, UniProt P28347). The experiment in a line: TR-FRET Assay for TEAD1(210-426) Binding to YAP(50-100). Particulars: His-TEAD 10 nM, YAP-Biotin peptide 50 nM. As to the method: Compounds were performed 3 fold serial dilution, 12 data points, added to 384 well white plate. The final DMSO concentration is 1%, duplicate for each concentration. Then His-TEAD protein was added to a final concentration of 10 nM, and allowed to preincubate for 30 minutes at room temperature. Assay buffer was added as background control.
Sequence of TEAD1(210-426) binding to YAP(50-100) (P28347 209-426): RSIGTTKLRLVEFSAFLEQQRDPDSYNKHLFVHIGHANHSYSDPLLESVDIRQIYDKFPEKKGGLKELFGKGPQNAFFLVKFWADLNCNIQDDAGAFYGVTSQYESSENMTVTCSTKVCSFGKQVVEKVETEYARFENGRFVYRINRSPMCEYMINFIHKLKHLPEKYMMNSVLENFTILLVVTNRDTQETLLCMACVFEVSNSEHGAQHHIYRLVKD
YAP-Biotin peptide was added to a final concentration of 50 nM, mixed well, incubate 10 minutes at room temperature. The YAP(50-100) peptide sequence used here is named SEQ ID NO: 2
The Europium-labeled anti-6×His antibody and APC labeled streptavidin were diluted according to the instructions, this detection solution was mixed 1:1 with reaction solution, incubated 1 hour at room temperature.
TR-FRET measurements were made on an Envision (Perkin Elmer), using an excitation wavelength of 320 nm and emissions read at 620 nm and 665 nm. The ratio of the 665 nm to the 620 nm multiply 10000 provides a normalized TR-FRET signal that represents the extent of binding.
Half inhibition concentration IC50 value was calculated by XLfit software.
A general note: TR-FRET usually uses a lanthanide donor and a delayed reading to cut background.

Test [2] deals with MSTO-211H cells. Kind of test: Proliferation Assay (CellTiter-Glo Luminescent Cell Viability Assay). Particulars: Homo sapiens, 96 hours treatment. Format: cell-based. As to the method: Example 5: Proliferation Assay
The effect of compound on YAP driven cancer cells proliferation was assessed in MSTO-211H (ATCC, CRL-2081TM) or NCI-H2052 (ATCC, CRL-5915TM) cells using CellTiter-Glo Luminescent Cell Viability Assay (Promega, G7570).
Briefly, individual cell lines were seeded in 96-well cell culture plate at the density of 1,500 cells per well and cultured in RPMII1640 (Gibco-A10491-01)+10% FBS (Gibco-10099-141C)+1% Penicillin-Streptomycin (5,000 U/mL, Gibco-15070-063) overnight at 37° C. with 5% CO2 before adding the compounds.
Following incubation, serial dilutions of compounds dissolved in DMSO were added to each well (3-fold dilution with 9 concentration points). The final concentration of DMSO present in this assay is below 0.5% and make duplication for each compound treated well.
Following 96 hours treatment, compound mediated cell growth inhibition was measured using CellTiter-Go Luminescent Cell Viability Assay (Promega, G7570). […] CellTiter-Glo in each assay well, mix and incubate at room temperature for 10 min. Read signal using EnVision® Multilabel Plate Reader (Perkin Elmer).
For data analysis, cell proliferation inhibition was calculated using the following formula:
Inhibition %=(1−(Compound treated well CTG signal/DMSO well CTG signal))*100.
IC50 values were calculated using GraphPad Prism software using a four-parameter fit model.
On the technique in general: In ATP-based viability assays light output follows the ATP content of the culture.

Molecules are shown by their SMILES.

As a reminder, the IC50 is the midpoint of a concentration-inhibition curve. Regarding `Cc1cc(Cn2ccc(-c3nn(-c4ccc(C(F)(F)F)cc4)c4ccccc34)cc2=O)n(C)n1` [Compound 16, 1-((1,3-dimethyl-1H-pyrazol-5-yl)methyl)-4-(1-(4-(trifluoromethyl)phenyl)-1H-indazol-3-yl)pyridin-2(1H)-one], the IC50 in test [1] was 100 to 1000 nM; in test [2] it was at most 1000 nM.
Turning to `CNc1nccc(Cn2ccc(-c3nn(-c4ccc(C(F)(F)F)cc4)c4c(OC)cccc34)cc2=O)n1` [Compound 142, 4-(7-methoxy-1-(4-(trifluoromethyl)phenyl)-1H-indazol-3-yl)-1-((2-(methylamino)pyrimidin-4-yl)methyl)pyridin-2(1H)-one], the IC50 in test [1] is 100 to 1000 nM; in test [2] it was at most 1000 nM.
For `C[C@@H](c1ccccn1)n1ccc(-c2nn(-c3ccc(C(F)(F)F)cc3)c3ncccc23)cc1=O` [Compound 20, (S)-1-(1-(pyridin-2-yl)ethyl)-4-(1-(4-(trifluoromethyl)phenyl)-1H-pyrazolo[3,4-b]pyridin-3-yl)pyridin-2(1H)-one], in that order: at most 100 nM and at most 1000 nM.
For `O=c1cc(-c2nn(-c3ccc(C(F)(F)F)cc3)c3nccnc23)ccn1Cc1ccnc(NCCO)n1` [Compound 102, 1-((2-((2-hydroxyethyl)amino)pyrimidin-4-yl)methyl)-4-(1-(4-(trifluoromethyl)phenyl)-1H-pyrazolo[3,4-b]pyrazin-3-yl)pyridin-2(1H)-one], in that order: at most 100 nM and at most 1000 nM.
As for `CNc1nccc(Cn2ccc(-c3nn(-c4ccc(F)cc4)c4ncccc34)cc2=O)n1` [Compound 58, 4-(1-(4-fluorophenyl)-1H-pyrazolo[3,4-b]pyridin-3-yl)-1-((2-(methylamino)pyrimidin-4-yl)methyl) pyridin-2(1H)-one], the IC50 in test [1] was at most 100 nM; in test [2], at most 1000 nM.
For `C[C@@H](c1ccccn1)n1ccc(-c2nn(-c3ccc(F)cc3)c3cccnc23)cc1=O` [Compound 4, (S)-4-(1-(4-fluorophenyl)-1H-pyrazolo[4,3-b]pyridin-3-yl)-1-(1-(pyridin-2-yl)ethyl)pyridin-2(1H)-one], in that order: 100 to 1000 nM and 1000 to 10000 nM.
For `Cn1ccnc1Cn1ccc(-n2nc(-c3ccc(C(F)(F)F)cc3)c3ncccc32)cc1=O` [Compound 43, 1-((1-methyl-1H-imidazol-2-yl)methyl)-4-(3-(4-(trifluoromethyl)phenyl)-1H-pyrazolo[4,3-b]pyridin-1-yl)pyridin-2(1H)-one], in that order: 100 to 1000 nM and at most 1000 nM.
For `CC(C)n1ccc(-c2nn(-c3ccc(C(F)(F)F)cc3)c3cccnc23)cc1=O` [Compound 8, 1-isopropyl-4-(1-(4-(trifluoromethyl)phenyl)-1H-pyrazolo[4,3-b]pyridin-3-yl)pyridin-2(1H)-one], the IC50 in test [1] is 100 to 1000 nM; in test [2], at most 1000 nM.
For `Nc1cc(Cn2ccc(-c3nn(-c4ccc(C(F)(F)F)cc4)c4ncccc34)cc2=O)ccn1` [Compound 112, 1-((2-aminopyridin-4-yl)methyl)-4-(1-(4-(trifluoromethyl)phenyl)-1H-pyrazolo[3,4-b]pyridin-3-yl)pyridin-2(1H)-one], in that order: at most 100 nM and at most 1000 nM.
With `CN(CCO)c1nccc(Cn2ccc(-n3nc(-c4ccc(C(F)(F)F)cc4)c4ncccc43)cc2=O)n1` [Compound 47, 1-((2-((2-hydroxyethyl)(methyl)amino)pyrimidin-4-yl)methyl)-4-(3-(4-(trifluoromethyl)phenyl)-1H-pyrazolo[4,3-b]pyridin-1-yl)pyridin-2(1H)-one], the IC50 is at most 100 nM in test [1] and at most 1000 nM in test [2].
For `CNc1nccc(Cn2ccc(-c3nn(-c4ccc(Cl)cc4)c4c(F)cccc34)cc2=O)n1` [Compound 146, 4-(1-(4-chlorophenyl)-7-fluoro-1H-indazol-3-yl)-1-((2-(methylamino)pyrimidin-4-yl)methyl)pyridin-2(1H)-one], the values for the IC50 in test [1] and in test [2] were at most 100 nM and at most 1000 nM, respectively.
For `Cn1ccc(Cn2ccc(-c3nn(-c4ccc(C(F)(F)F)cc4)c4ncccc34)cc2=O)n1` [Compound 111, 1-((1-methyl-1H-pyrazol-3-yl)methyl)-4-(1-(4-(trifluoromethyl)phenyl)-1H-pyrazolo[3,4-b]pyridin-3-yl)pyridin-2(1H)-one], in that order: at most 100 nM and at most 1000 nM.
Take `CNc1nccc(Cn2ccc(-n3nc(-c4ccc(C(F)(F)F)cc4)c4ncccc43)cc2=O)n1` [Compound 42, 1-((2-(methylamino)pyrimidin-4-yl)methyl)-4-(3-(4-(trifluoromethyl)phenyl)-1H-pyrazolo[4,3-b]pyridin-1-yl)pyridin-2(1H)-one]: the values for the IC50 in test [1] and in test [2] were at most 100 nM and at most 1000 nM, respectively.
As to `O=c1cc(-n2nc(-c3ccc(C(F)(F)F)cc3)c3ncccc32)ccn1Cc1ccnc(NCCO)n1` [Compound 46, 1-((2-((2-hydroxyethyl)amino)pyrimidin-4-yl)methyl)-4-(3-(4-(trifluoromethyl)phenyl)-1H-pyrazolo[4,3-b]pyridin-1-yl)pyridin-2(1H)-one], the concentration for half-maximal inhibition (IC50) in test [1] was at most 100 nM; in test [2] it was at most 1000 nM.
For `COCCNc1nccc(Cn2ccc(-c3nn(-c4ccc(OC(F)(F)F)cc4)c4c(F)cccc34)cc2=O)n1` [Compound 150, 4-(7-fluoro-1-(4-(trifluoromethoxy)phenyl)-1H-indazol-3-yl)-1-((2-((2-methoxyethyl)amino)pyrimidin-4-yl)methyl)pyridin-2(1H)-one], in that order: at most 100 nM and at most 1000 nM.
For `COc1cccc(Cn2ccc(-c3nn(-c4ccc(C(F)(F)F)cc4)c4ccccc34)cc2=O)n1` [Compound 83, 1-((6-methoxypyridin-2-yl)methyl)-4-(1-(4-(trifluoromethyl)phenyl)-1 H-indazol-3-yl)pyridin-2(1H)-one], in that order: at most 100 nM and at most 1000 nM.
On to `O=c1cc(-c2nn(-c3ccc(C(F)(F)F)cc3)c3ncccc23)ccn1Cc1nccc(O)n1` [Compound 101, 1-((4-hydroxypyrimidin-2-yl)methyl)-4-(1-(4-(trifluoromethyl)phenyl)-1H-pyrazolo[3,4-b]pyridin-3-yl)pyridin-2(1H)-one], for which the IC50 in test [1] is at most 100 nM; in test [2] it was at most 1000 nM.
For the compound `O=c1cc(-c2nn(-c3ccc(C(F)(F)F)cc3)c3ccccc23)ccn1Cc1nccc(N2CC3(COC3)C2)n1` [Compound 87, 1-((4-(2-oxa-6-azaspiro[3.3]heptan-6-yl)pyrimidin-2-yl)methyl)-4-(1-(4-(trifluoromethyl)phenyl)-1H-indazol-3-yl)pyridin-2(1H)-one], the IC50 in test [1] was at most 100 nM; in test [2] it was at most 1000 nM.
For `C[C@@H](c1ccccn1)n1ccc(-c2nn(-c3ccc(Cl)cc3)c3cccnc23)cc1=O` [Compound 5, (S)-4-(1-(4-chlorophenyl)-1H-pyrazolo[4,3-b]pyridin-3-yl)-1-(1-(pyridin-2-yl)ethyl)pyridin-2(1H)-one], in that order: at most 100 nM and 1000 to 10000 nM.
`O=c1cc(-c2nn(-c3ccc(C(F)(F)F)cc3)c3ncccc23)ccn1Cc1ccnc(NCCO)n1` [Compound 73, 1-((2-((2-hydroxyethyl)amino)pyrimidin-4-yl)methyl)-4-(1-(4-(trifluoromethyl)phenyl)-1H-pyrazolo[3,4-b]pyridin-3-yl)pyridin-2(1H)-one]: the IC50 was at most 100 nM in test [1] and at most 1000 nM in test [2].
For `CNc1nccc(Cn2ccc(-c3nn(-c4ccc(C(F)(F)F)cc4)c4c(C)cccc34)cc2=O)n1` [Compound 143, 4-(7-methyl-1-(4-(trifluoromethyl)phenyl)-1H-indazol-3-yl)-1-((2-(methylamino)pyrimidin-4-yl)methyl)pyridin-2(1H)-one], in that order: 100 to 1000 nM and at most 1000 nM.
Take `CN(CCO)c1nccc(Cn2ccc(-c3nn(-c4ccc(C(F)(F)F)cc4)c4ncccc34)cc2=O)n1` [Compound 72]: the IC50 was at most 100 nM in test [1] and at most 1000 nM in test [2].
For `O=c1cc(-c2nn(-c3ccc(C(F)(F)F)cc3)c3ccccc23)ccn1Cc1ccnc(N2CC(O)C2)n1` [Compound 95, 1-((2-(3-hydroxyazetidin-1-yl)pyrimidin-4-yl)methyl)-4-(1-(4-(trifluoromethyl)phenyl)-1H-indazol-3-yl)pyridin-2(1H)-one], the IC50 in test [1] is at most 100 nM; in test [2], at most 1000 nM.
